Measurements as given in patent US20260265305A1, “POLYPEPTIDE DERIVATIVE FOR ORAL DELIVERY” (Hangzhou Sciwind Biosciences Co., Ltd., priority 2023, published 2026).
Numbered stars: 1 amine (or outer) side, 2 acyl side, 3 side chain; on linkers, the order of the positions; unused ones are H or OH. Bridge positions count the residues as written; N and C are the ends. Square brackets hold non-standard residues; d marks the D form. Ends that are not written are not given here. Peptide text beside a SMILES is read from it. * marks the point of attachment. C20 diacid = O=C(O)CCCCCCCCCCCCCCCCCCC(=O)*; C18 diacid = O=C(O)CCCCCCCCCCCCCCCCC(=O)*; βAsp = O=C(O)[C@H](CC(=O)[*:2])N[*:1]; Hyp = O=C(O)[C@@H]1C[C@@H](O)CN1; AEEA = NCCOCCOCC(=O)O

Tests used:
[1] = dog, in vivo, 7 mg
Method: Whole blood of the animals was collected pre dose (−10 min) and 2 h, 4 h, and 8 h post dose on Day 1, pre dose (−10 min) and 2 h and 4 h post dose on Day 2-Day 4, and pre dose (−10 min) and 2 h, 4 h, 8 h, 24 h, 48 h, and 72 h post dose on Day 5, and processed into plasma using heparin sodium as an anticoagulant. […] Experimental data was plotted using GraphPad Prism9.3.1.

[2] = Heat accelerated stability assay of polypeptide solutions (40° C., pH about 7.4), reversed phase chromatography; type: physicochemical
How it was run: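 Polypeptide derivative lyophilisate (1 mg/mL) with sodium dihydrogen phosphate (1.42 mg/mL) in water, pH about 7.4, sterile-filtered, vialed and held at 40° C; sampled on days 7 and 26. After centrifugation, concentration and purity (target/total peak area) by C18 RP-HPLC, TFA/ACN gradient, 280 and 214 nm.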

[3] = Efficacy assay in SD rats, dose-dependent study, single subcutaneous dose; type: in vivo; conditions: Table 9
Text: […] Food intake was the amount of food consumed by each of the animals per day.

amylin receptor (hAMY3R) [4] = biological target: T1, amylin receptor (hAMY3R) (Homo sapiens, UniProt O60896+P30988); assay: Amylin receptor agonism testing, CRE-luciferase assay in stably transfected CHO-K1/Ga15/AMY3 cells; type: cell-based; conditions: incubation of 4 hours (N2 and N3 retested); Table 3 lower part; read-out: EC50, activity against the amylin receptor in cells
T1 construct: host or cells: CHO-K1/Ga15/AMY3 cells, further stably transfected with a CRE-luciferase plasmid
T1 sequence (P30988 25-474): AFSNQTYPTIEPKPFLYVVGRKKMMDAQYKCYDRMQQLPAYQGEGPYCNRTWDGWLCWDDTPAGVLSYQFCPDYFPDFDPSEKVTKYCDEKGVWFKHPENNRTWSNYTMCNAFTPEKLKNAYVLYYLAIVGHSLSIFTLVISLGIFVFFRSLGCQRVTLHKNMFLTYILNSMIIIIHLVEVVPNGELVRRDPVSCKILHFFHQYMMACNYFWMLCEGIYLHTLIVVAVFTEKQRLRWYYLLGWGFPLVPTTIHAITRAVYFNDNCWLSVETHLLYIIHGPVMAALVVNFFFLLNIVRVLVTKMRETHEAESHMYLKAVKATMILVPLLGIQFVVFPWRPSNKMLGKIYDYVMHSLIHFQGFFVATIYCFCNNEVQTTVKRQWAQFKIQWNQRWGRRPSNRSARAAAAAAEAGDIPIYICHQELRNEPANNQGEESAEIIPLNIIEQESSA
T1 sequence (O60896 24-148): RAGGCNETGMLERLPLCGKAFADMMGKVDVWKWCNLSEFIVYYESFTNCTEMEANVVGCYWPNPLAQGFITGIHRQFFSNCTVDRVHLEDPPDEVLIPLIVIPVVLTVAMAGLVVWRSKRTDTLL

amylin receptor (hAMY3R) [5] = biological target: T2, amylin receptor (hAMY3R) (human (printed as hAMY3R), UniProt P30988 25-474; O60896 24-148); assay: cell-based or functional assay
T2 sequence (looked up) 1: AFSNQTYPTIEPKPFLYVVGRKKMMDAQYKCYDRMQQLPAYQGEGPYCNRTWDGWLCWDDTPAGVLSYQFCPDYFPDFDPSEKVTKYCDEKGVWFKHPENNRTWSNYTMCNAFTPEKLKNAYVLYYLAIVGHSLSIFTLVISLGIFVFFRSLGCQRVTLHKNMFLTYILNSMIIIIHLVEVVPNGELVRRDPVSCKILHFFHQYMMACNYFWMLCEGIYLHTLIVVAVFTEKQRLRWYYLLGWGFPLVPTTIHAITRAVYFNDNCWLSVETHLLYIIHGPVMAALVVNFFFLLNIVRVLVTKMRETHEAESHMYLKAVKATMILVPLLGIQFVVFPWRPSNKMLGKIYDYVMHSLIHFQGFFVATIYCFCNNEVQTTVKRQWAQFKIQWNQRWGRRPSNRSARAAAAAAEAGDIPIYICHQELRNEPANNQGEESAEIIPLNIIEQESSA
T2 sequence (looked up) 2: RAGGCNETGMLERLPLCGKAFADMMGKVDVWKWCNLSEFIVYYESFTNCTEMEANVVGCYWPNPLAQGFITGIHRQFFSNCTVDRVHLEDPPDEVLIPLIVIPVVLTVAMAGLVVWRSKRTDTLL

In the case of `CC[C@H](C)[C@H](NC(=O)[C@@H]1CCCN1C(=O)[C@H](CCCCN)NC(=O)[C@H](CC(C)C)NC(=O)[C@H](CC(N)=O)NC(=O)[C@H](CC(N)=O)NC(=O)[C@H](CO)NC(=O)[C@H](CO)NC(=O)[C@H](Cc1c[nH]cn1)NC(=O)[C@H](CCCNC(=N)N)NC(=O)[C@H](CC(C)C)NC(=O)[C@H](Cc1ccccc1)NC(=O)[C@H](CC(=O)O)NC(=O)[C@H](C)NC(=O)[C@H](CC(C)C)NC(=O)[C@H](CCCNC(=N)N)NC(=O)[C@H](CCC(N)=O)NC(=O)[C@@H](NC(=O)[C@H](C)NC(=O)[C@@H]1CSSC[C@H](NC(=O)[C@H](CCCCN)NC(=O)COCCOCCNC(=O)COCCOCCNC(=O)C[C@H](NC(=O)CCCCCCCCCCCCCCCCCCC(=O)O)C(=O)O)C(=O)N[C@@H](CC(N)=O)C(=O)N[C@@H]([C@@H](C)O)C(=O)N[C@@H](C)C(=O)N[C@@H]([C@@H](C)O)C(=O)N1)[C@@H](C)O)C(=O)N[C@@H](CC(C)C)C(=O)N1CCC[C@H]1C(=O)N1CCC[C@H]1C(=O)N[C@H](C(=O)N[C@@H](CC(N)=O)C(=O)N[C@H](C(=O)NCC(=O)N[C@@H](CO)C(=O)N[C@@H](CC(N)=O)C(=O)N[C@H](C(=O)N1C[C@H](O)C[C@H]1C(N)=O)[C@@H](C)O)C(C)C)[C@@H](C)O` [N2] ({C20 diacid-βAsp-AEEA-AEEA}-KCNTATCATQRLADFLRHSSNNLKPILPPTNVGSNT[Hyp]-NH2; disulfide 2-7 (inferred)), the oral bioavailability [1] is reported as “extraordinarily high oral bioavailability”.

With `CC[C@H](C)[C@H](NC(=O)[C@@H]1CCCN1C(=O)CNC(=O)[C@H](Cc1ccccc1)NC(=O)[C@H](CC(N)=O)NC(=O)[C@H](CC(N)=O)NC(=O)[C@H](CO)NC(=O)[C@H](CO)NC(=O)[C@H](Cc1c[nH]cn1)NC(=O)[C@H](CCCNC(=N)N)NC(=O)[C@H](CC(C)C)NC(=O)[C@H](Cc1ccccc1)NC(=O)[C@H](CCC(=O)O)NC(=O)[C@H](C)NC(=O)[C@H](CC(C)C)NC(=O)[C@H](CCCNC(=N)N)NC(=O)[C@H](CCC(N)=O)NC(=O)[C@@H](NC(=O)[C@H](C)NC(=O)[C@@H]1CSSC[C@H](NC(=O)[C@H](CCCCN)NC(=O)CC[C@H](NC(=O)CCCCCCCCCCCCCCCCCCC(=O)O)C(=O)O)C(=O)N[C@@H](CC(N)=O)C(=O)N[C@@H]([C@@H](C)O)C(=O)N[C@@H](C)C(=O)N[C@@H]([C@@H](C)O)C(=O)N1)[C@@H](C)O)C(=O)N[C@@H](CC(C)C)C(=O)N1CCC[C@H]1C(=O)N1CCC[C@H]1C(=O)N[C@H](C(=O)N[C@@H](CC(N)=O)C(=O)N[C@H](C(=O)NCC(=O)N[C@@H](CO)C(=O)N[C@@H](CC(N)=O)C(=O)N[C@H](C(=O)N1CCC[C@H]1C(N)=O)[C@@H](C)O)C(C)C)[C@@H](C)O` [D1, Cagrilintide] the purity decrease ([2]; Day 7 of the accelerated testing) was 12.73%, the “appearance (clarity) of the solution” value ([2]; Day 26 of the heat accelerated assay) was “foreign matters were readily observable” and the “Purity change on 7 d” value ([2]; reversed phase chromatography 214 nm, 40° C., Day 7, purity on 7 d − purity on 0 d) was −12.73%. For the same molecule, the “24 h food intake” value ([3]; 30 nmol/kg single s.c. dose) was 5.250 g, the “24 h weight change” value ([3]; 30 nmol/kg single s.c. dose) was −6.416% and the “24 h food intake” value ([3]; 100 nmol/kg single s.c. dose) was 2.100 g. For the same molecule, the “24 h weight change” value ([3]; 100 nmol/kg single s.c. dose) was −9.103%.

In the case of `CC[C@H](C)[C@H](NC(=O)[C@@H]1CCCN1C(=O)[C@H](CCCCN)NC(=O)[C@H](CC(C)C)NC(=O)[C@H](CC(N)=O)NC(=O)[C@H](CC(N)=O)NC(=O)[C@H](CO)NC(=O)[C@H](CO)NC(=O)[C@H](Cc1c[nH]cn1)NC(=O)[C@H](CCCNC(=N)N)NC(=O)[C@H](CC(C)C)NC(=O)[C@H](Cc1ccccc1)NC(=O)[C@H](CC(=O)O)NC(=O)[C@H](C)NC(=O)[C@H](CC(C)C)NC(=O)[C@H](CCCNC(=N)N)NC(=O)[C@H](CCC(N)=O)NC(=O)[C@@H](NC(=O)[C@H](C)NC(=O)[C@@H]1CSSC[C@H](NC(=O)[C@H](CCCCN)NC(=O)COCCOCCNC(=O)COCCOCCNC(=O)C[C@H](NC(=O)CCCCCCCCCCCCCCCCC(=O)O)C(=O)O)C(=O)N[C@@H](CC(N)=O)C(=O)N[C@@H]([C@@H](C)O)C(=O)N[C@@H](C)C(=O)N[C@@H]([C@@H](C)O)C(=O)N1)[C@@H](C)O)C(=O)N[C@@H](CC(C)C)C(=O)N1CCC[C@H]1C(=O)N1CCC[C@H]1C(=O)N[C@H](C(=O)N[C@@H](CC(N)=O)C(=O)N[C@H](C(=O)NCC(=O)N[C@@H](CO)C(=O)N[C@@H](CC(N)=O)C(=O)N[C@H](C(=O)N1C[C@H](O)C[C@H]1C(N)=O)[C@@H](C)O)C(C)C)[C@@H](C)O` [N3] ({C18 diacid-βAsp-AEEA-AEEA}-KCNTATCATQRLADFLRHSSNNLKPILPPTNVGSNT[Hyp]-NH2; disulfide 2-7), the EC50 (amylin receptor (hAMY3R) [4]) is reported as 0.001 nM and the oral bioavailability [1] is reported as “significantly improving the bioavailability”.

With ASQLSTAVLGRLSQELHRLQDYPRTDVGSGSP-NH2 [M5] the “EC50, CRE-luciferase reporter in amylin receptor CHO cells, 24 h” value (amylin receptor (hAMY3R) [5]) was 0.033 nM.
